Experimental data from patent US20110118209A1 (priority 2006, published 2011).
Read-outs that look alike come from different tables or passages of the source.

Legend:
[1] = test system: primary rabbit kidney proximal tubule (RPT) cells
[2] = test system: human lox-IMVI melanoma; assay type: in vivo
[3] = test system: P388/0; assay type: in vivo, mice
[4] = test system: L1210/0; assay type: in vivo, mice
[5] = test system: L1210/CPA; assay type: in vivo, mice
[6] = test system: P388/CPA; assay type: in vivo, mice
[7] = in vivo; settings: rat, po
[8] = test system: mice; settings: 75 mg/kg, either sex
[9] = test system: B16 Melanoma; parameters: species or system mice; settings: mouse, in vivo
[10] = test system: mice; experiment: Tolerability of IPM in tumor-bearing mice (Example 4 studies); assay type: in vivo; settings: IP and IV treatment
Text: This example describes the evaluation of IPM against several different cancer cell lines implanted in mice.

[11] = 175 mg/kg IP day 1 only, female CDF1 mice
[12] = 265 mg/kg IP day 1 only, female CDF1 mice
[13] = 200 mg/kg IP day 2 only, male CDF1 mice

SMILES: O=P1(NCCCl)OCCC(O)N1CCCl (stereo not shown) [4-hydroxyifosfamide]
- cell death [1]: extensive cell death

SMILES: O=P1(N(CCCl)CCCl)NCCCO1 (stereo not shown) [CPA, cyclophosphamide]
- Median Day of Death ([2]; 40 mg/kg/dose IV Q1 D × 5, nude mice): 42.0 days
- Net log10 Reduction in tumor burden after therapy [3, 11]: 7 log10
- Net log10 Reduction in tumor burden after therapy [3, 12]: 7 log10
- Net log10 Reduction in tumor burden after therapy [4, 13]: 7 log10
- Net log10 Reduction in tumor burden after therapy [5, 13]: 4 log10
- Net log10 Reduction in tumor burden after therapy [6, 11]: 3 log10
- Net log10 Reduction in tumor burden after therapy [6, 12]: 3 log10

SMILES: O=P1(NCCCl)OCCC(OO)N1CCCl (stereo not shown) [HIFA, 4-hydroperoxyifosfamide]
- effect on viability [1]: did not significantly affect viability

SMILES: O=P(O)(NCCCl)NCCCl [IPM, N,N′-di(2-chloroethyl)phosphorodiamidic acid]
- LD50 [7]: 1400 to 3500 mg/kg
- microscopic findings [8]: No obvious treatment-related microscopic findings
- Median Day of Death ([2]; in vivo): 29.0 days
- Net log10 Reduction in tumor burden after therapy ([4]; mouse, in vivo): 8 log10
- Net log10 Reduction in tumor burden after therapy ([5]; mouse, in vivo): 7 log10
- Net log10 Reduction in tumor burden after therapy ([6]; mouse, in vivo): 7 log10
- efficacy compared with CPA and Ifos [9]: slightly inferior to CPA but better than Ifos
- tolerability [10]: tolerated intraperitoneal (IP) and intravenous (IV) treatment with IPM well

SMILES: O=P1(NCCCl)OCCCN1CCCl (stereo not shown) [Ifos, Ifosfamide]
- Net log10 Reduction in tumor burden after therapy ([3]; mouse, in vivo): 7 log10
- Net log10 Reduction in tumor burden after therapy ([4]; mouse, in vivo): 8 log10
- Net log10 Reduction in tumor burden after therapy ([6]; mouse, in vivo): 4 log10

SMILES: C=CC=O [acrolein]
- LD50 ([1]; rabbit): 80 µM

SMILES: O=CCCl [chloroacetaldehyde]
- concentration of complete inhibition ([1]; rabbit): 75 µM
